Test results as given in patent US9642874B2, “Compositions of selenoorganic compounds and methods of use thereof” (Alltech, Inc., priority 2014, dated 2017).

Key:
Igf1r = Igf1r mRNA expression (QRT-PCR) in AML-12 cells; type: cell-based, mouse; conditions: insulin alone, 6 hours, without 8-CPT/Dex
Description: For RNA analysis of insulin receptor (Insr), insulin like growth factor receptor (Igf1r), and Glucose-6-Phosphatase (G6pc), AML-12 cells were amplified in ITS, Dex and FBS-containing DMEM/F12 media, and cultured on 24-well (6.7×10^4 cells/well) plates in 10% FBS ITS-free DMEM/F12 media with or without Dex overnight. These cells were treated with control (water) or various compounds (diluted in 10% FBS ITS-free DMEM/F12 media with or without Dex) for 6 hours, 24 hours, or 48 hours.
In some experiments, the AML-12 cells were washed twice with PBS after the compound treatments for 24 hours, and then incubated with selenium compounds (150 or 300 ppb of each compound) in the presence or absence of insulin (10 or 100 nM), 0.1 mM 8-CPT (Sigma), or 0.5 μM Dex in serum-free, glucose/phenol red-free DMEM media supplemented with 20 mM lactose and 2 mM pyruvate, and 15 mM HEPES (glucose-production media) for another 6 hours. After treatments, cell media were collected and subjected to glucose assays using Abcam glucose assay kit according to the manufacturer's protocol. […]
Total RNA from these cells was isolated using Trizol (Invitrogen) according to the manufacturer's protocol, and then incubated with DNase I to remove any potential contaminated genomic DNA. […] Three to six samples were analyzed in each treatment group. […]

Foxo1 = assay: Western blot of pFoxo1T24 in primary mouse hepatocytes; type: cell-based; conditions: 100 nM insulin 6 hours, or Compounds CDE both doses 24 hours + 6 hours
Description: The overnight-acclimated hepatocytes were washed twice with PBS (to remove any residual FBS and other additives in the TRL hepatocyte maintenance medium, pretreated with control (water) or selenium Compounds CDE (150 or 300 ppb of each selenium compound) in DMEM/F12 media supplemented with 10% fetal bovine serum (FBS) for 24 hr. These cells were then washed twice with PBS and incubated with the same dose of selenium Compounds CDE (150 or 300 ppb) in the presence or absence of insulin (10 or 100 nM, Sigma), 0.1 mM 8-CPT (Sigma) or 0.5 μM Dex (Sigma) in serum-free and glucose-free DMEM media (Invitrogen) supplemented with 20 mM lactose (Sigma) and 2 mM pyruvate (Sigma) and 15 mM HEPES (Sigma) for another 6 hours. […]
After the above described treatments, primary mouse hepatocytes were rinsed with ice-cold PBS and lysed in the ice-cold RIPA buffer containing complete proteinase and phosphatase inhibitors (Thermo-Fisher Scientific, Waltham, Mass.) on ice for 30 min Cell lysates were collected using a cell scraper and transfer pipette and then centrifuged at 12000×g for 30 min at 4° C. to remove the DNA pellet and obtain the protein extract. Protein levels in the supernatant of these cell lysates were determined using the Pierce Micro-BCA protein assay kit (Thermo Scientific-Piece Biotechnology, Rockford, Ill.) according to the manufacturer's protocol. […]

Q: Which Igf1r expression (Igf1r) does the source give for “insulin: insulin (10 or 100 nM, Sigma) used as comparator and cotreatment” here?
A: did not increase

Q: What about the “pFoxo1T24 protein level (in words)” value (Foxo1) of the same substance?
A: significant increase
